This assay has as its target von Hippel-Lindau disease tumor suppressor/GTPase KRas (Homo sapiens, UniProt P01116+P40337, G12D). Kind of assay: PROTAC activity at VHL/KRAS G12D mutant in human ASPC1 cells assessed as induction of protein degradation incubated for 24 hrs by HiBiT based Nano-Glo luminescence assay. It is filed as cell-based. (In general: With HiBiT, luminescence reflects the tagged protein that the partner subunit can reach.)
von Hippel-Lindau disease tumor suppressor/GTPase KRas, sequence (P01116 whole entry G12D, stated change not applied): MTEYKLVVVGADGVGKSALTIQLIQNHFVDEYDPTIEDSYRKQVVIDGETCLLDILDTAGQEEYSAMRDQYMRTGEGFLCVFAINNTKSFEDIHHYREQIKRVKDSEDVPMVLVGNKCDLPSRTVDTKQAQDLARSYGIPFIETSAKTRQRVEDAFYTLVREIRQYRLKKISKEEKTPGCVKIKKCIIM
von Hippel-Lindau disease tumor suppressor/GTPase KRas, sequence (P40337 whole entry, stated change not applied): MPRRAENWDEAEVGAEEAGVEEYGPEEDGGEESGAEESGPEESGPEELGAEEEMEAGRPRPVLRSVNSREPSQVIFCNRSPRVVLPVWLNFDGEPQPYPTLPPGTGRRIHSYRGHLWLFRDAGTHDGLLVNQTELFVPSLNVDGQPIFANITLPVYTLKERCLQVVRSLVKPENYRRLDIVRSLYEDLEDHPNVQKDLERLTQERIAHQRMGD
By DC50 is commonly meant the concentration giving 50% degradation. Turning to `C#Cc1c(F)ccc2cccc(-c3ncc4c(N5CC6CCC(C5)N6)nc(OC[C@@]56CCCN5[C@H](COC(=O)N5CCC7(CCC(CCc8ccc9c(c8)n(C)c(=O)n9C8CCC(=O)NC8=O)CC7)CC5)CC6)nc4c3F)c12` (some centres not stated), the DC50 is not below 100 nM.

`C#Cc1c(F)ccc2cccc(-c3ncc4c(N5CC6CCC(C5)N6)nc(OC[C@@]56CCCN5[C@H](COC(=O)N5CC(CN7CCN(c8ccc9c(c8)n(C)c(=O)n9C8CCC(=O)NC8=O)CC7)C5)CC6)nc4c3F)c12` (some centres not stated): the DC50 was not above 100 nM.

`C#Cc1c(F)ccc2cc(O)cc(-c3ncc4c(N5CC6CCC(C5)N6)nc(OC[C@@]56CCCN5[C@H](COC(=O)N5CCC(OCc7ccc8c(c7)n(C)c(=O)n8C7CCC(=O)NC7=O)CC5)CC6)nc4c3F)c12` (some centres not stated): the DC50 was not below 100 nM.

With `C#Cc1c(F)ccc2cccc(-c3ncc4c(N5CC6CCC(C5)N6)nc(OC[C@@]56CCCN5[C@H](COC(=O)N5CCC(OCCCCCCc7ccc8c(c7)n(C)c(=O)n8C7CCC(=O)NC7=O)CC5)CC6)nc4c3F)c12` (some centres not stated), the DC50 is not above 100 nM.

Take `C#Cc1c(F)ccc2cccc(-c3ncc4c(N5CC6CCC(C5)N6)nc(OC[C@@]56CCCN5[C@H](COC(=O)N5CCC(CC7CCN(Cc8ccc9c(c8)n(C)c(=O)n9C8CCC(=O)NC8=O)CC7)CC5)CC6)nc4c3F)c12` (some centres not stated): the DC50 was not above 100 nM.

As for `C#Cc1c(F)ccc2cccc(-c3ncc4c(N5CC6CCC(C5)N6)nc(OC[C@@]56CCCN5[C@H](COC(=O)N5CCC(OC7CCN(Cc8ccc9c(c8)n(C)c(=O)n9C8CCC(=O)NC8=O)CC7)CC5)CC6)nc4c3F)c12` (some centres not stated), the DC50 is not above 100 nM.

`C#Cc1c(F)ccc2cc(O)cc(-c3ncc4c(N5CC6CCC(C5)N6)nc(OC[C@@]56CCCN5[C@H](COC(=O)N5CCC(OCCCc7ccc8c(c7)n(C)c(=O)n8C7CCC(=O)NC7=O)CC5)CC6)nc4c3F)c12` (some centres not stated): the DC50 is not above 100 nM.

With `C#Cc1c(F)ccc2cccc(-c3ncc4c(N5CC6CCC(C5)N6)nc(OC[C@@]56CCCN5[C@H](COC(=O)N5CCN(C7CCN(Cc8ccc9c(c8)n(C)c(=O)n9C8CCC(=O)NC8=O)CC7)CC5)CC6)nc4c3F)c12` (some centres not stated), the DC50 is not above 100 nM.

For the molecule `C#Cc1c(F)ccc2cccc(-c3ncc4c(N5CC6CCC(C5)N6)nc(OC[C@@]56CCCN5[C@H](COC(=O)N5CCC(CN7CCC(c8ccc9c(c8)n(C)c(=O)n9C8CCC(=O)NC8=O)CC7)CC5)CC6)nc4c3F)c12` (some centres not stated), the DC50 was not above 100 nM.

In the case of `C#Cc1c(F)ccc2cccc(-c3ncc4c(N5CC6CCC(C5)N6)nc(OC[C@@]56CCCN5[C@H](COC(=O)N5CCC(OCCC#Cc7ccc8c(c7)n(C)c(=O)n8C7CCC(=O)NC7=O)CC5)CC6)nc4c3F)c12` (some centres not stated), the DC50 was not above 100 nM.

On to `C#Cc1c(F)ccc2cccc(-c3ncc4c(N5CC6CCC(C5)N6)nc(OC[C@@]56CCCN5[C@H](COC(=O)N5CCC(OCCCc7ccc8c(c7)n(C)c(=O)n8C7CCC(=O)NC7=O)CC5)CC6)nc4c3F)c12` (some centres not stated), for which the DC50 is not above 100 nM.

`C#Cc1c(F)ccc2cccc(-c3ncc4c(N5CC6CCC(C5)N6)nc(OC[C@@]56CCCN5[C@H](COC(=O)N5CCC(OC7CN(Cc8ccc9c(c8)n(C)c(=O)n9C8CCC(=O)NC8=O)C7)CC5)CC6)nc4c3F)c12` (some centres not stated): the DC50 was not above 100 nM.
